Measurements as given in patent US20220110846A1, “EMOLLIENT AND CLEANSING AGENT” (Oleon NV, priority 2020, published 2022).

Assays:
[1] = system: Candida albicans, DSM 1386; test: Minimum inhibitory concentration (ISO 20776-1:2019); format: cell-based
Procedure: (§1) Preservatives used were phenoxyethanol and benzyl alcohol.
(§2) Micro-organisms used were: • Staphylococcus aureus, DSM 799; • Candida albicans, DSM 1386.
(§3) Two samples were prepared comprising each 90 wt % of combination 1 and 10 wt % of respectively phenoxyethanol and benzyl alcohol.
(§4) Two comparative samples comprising 100 wt % of respectively phenoxyethanol and benzyl alcohol were also prepared.
(§5) To evaluate the boosting antimicrobial property of the combination according to the invention, the minimum inhibitory concentration (MIC) was determined according to a method based on standard ISO 20776-1:2019.

[2] = system: Staphylococcus aureus, DSM 799; test: as above; format: cell-based
Procedure: as §1, §2, §3, §4, §5

For `OCc1ccccc1` [Benzyl alcohol, benzyl alcohol], the “MIC, Candida albicans” value [1] was 0.30% and the “MIC, Staphylococcus aureus” value [2] was 0.40%.
